Test results from publication PMC10508264, “Exploring the antioxidant, antimicrobial, cytotoxic and biothermodynamic properties of novel morpholine derivative bioactive Mn(II), Co(II) and Ni(II) complexes – combined experimental and theoretical measurements towards DNA/BSA/SARS-CoV-2 3CL^Pro” (RSC Medicinal Chemistry, 2023).

Target: BSA (Bos taurus, UniProt P02769)
Assay: BSA fluorescence quenching titration
Type: binding, bovine
Conditions: for Gibb's free energy change (SV method II), BSA: T = 298 K; for Kq (SV method I), BSA: τ0 = 10^−8 s; for P, ratio of fluorescence quantum efficiency, BSA: F/F0 vs 1/[BSA]
Description: Titrations were performed for all tested compounds (1–200 μM) with pre-incubated EB-bound DNA and the intensity variations between 510 nm and 610 nm were carefully monitored in the presence and absence of DNA (200 μM) during the initial emission and excitation by EB.[31]
Fluorescence emission spectral titration is an efficient approach to evaluating the binding properties of DNA/BSA biomolecules. In general, the fluorescence of EB is quite weak in aqueous solution, but when it is bound to DNA, the fluorescence intensity rises. However, it is a well-known imperative intercalator and is more supportive in distinguishing the binding strength of non-fluorescence test substances. Also, the fluorescence emission spectra of the EB–DNA adduct were examined at 610 nm in the absence and presence of rising quantities of each test compound. When the complex concentration (0–240 μM) rises, the fluorescence intensity of the EB-bound DNA complex diminishes owing to the displacement of EB from CT-DNA. A notable reduction in the fluorescence emission intensity at 610 nm is observed (Fig. S26 ^† and Table 4). The photoelectron shift from DNA's guanine base to the excited states may be the cause of the frequency quenching in the emission of the test substance by DNA. […] Therefore, the competitive binding experiment can make use of EB as a fluorescent probe. […] This is further evidence that complexes (1–3) strongly bind intercalatively with DNA. The observed results agree well with the data from electronic absorption spectral measurements. Additionally, the experiment was extended to examine the binding properties between the test substance and BSA. BSA mostly contains three amino acid residues (tyrosine, tryptophan, and phenylalanine), which give it its inherent fluorescence. […] These two residues also have minimal quenching effects. Tryptophan in BSA fluoresces mostly because of a residue that is trapped inside a hydrophobic cavity. Therefore, it is crucial to model potential binding interactions with the metal complexes. […] The fluorescence intensity also reduces while the test substances (1–3) are steadily blended with the BSA solution, proving that complexes (1–3) interact with BSA via altering the protein's secondary structure, which also leads to an alteration in the tryptophan environment of BSA (Fig. S27 ^†). Furthermore, BSA structural similarities share 76% sequence identity with human serum albumin (HSA), the most prevalent protein in blood plasma that transports ions and proteins to cells and tissues. HSA is able to readily crystallize under the trivalent cations, but BSA has no ready crystallizing property. However, they consist of parallel physicochemical properties to each other.[74,75] Additionally, the Stern–Volmer eqn (12) and (13) were employed to analyze the data (Fig. S28 ^† and Table 4). Additionally, the kq values for DNA and BSA binding were acquired in the range of 1.1636–2.8863 × 10^12 and 2.6390–7.0774 × 10^12 mol^−1 s^−1, respectively. They are also much greater than the collision quenching constant value (2.0 × 10^10 mol^−1 s^−1). Therefore, it is assumed that the static quenching process was brought on by adduct construction between the test compounds and BSA rather than a dynamic collision. However, fluorescence spectroscopy is generally plagued by the inner filter effect (IFE), disturbing spectral analysis. The energizing ray is attenuated due to the highly concentrated solution sample. As a result, strong fluorescence is only seen on surfaces facing the excitation beam.

SMILES	KSV (SV method I), BSA [M⁻¹]	Kass (SV method II), BSA [M⁻¹]	n, number of binding sites (SV method II), BSA	Gibb's free energy change (SV method II), BSA [kJ/M]	Kq (SV method I), BSA [M⁻¹ s⁻¹]	P, ratio of fluorescence quantum efficiency, BSA
[Mn+2].[O-]c1ccccc1N=Cc1ccc(N2CCOCC2)cc1.[O-]c1ccccc1N=Cc1ccc(N2CCOCC2)cc1.c1ccc(-c2ccccn2)nc1 [(1)]	46510	20050	0.954	-24.5	4.651e+12	0.287
[Co+2].[O-]c1ccccc1N=Cc1ccc(N2CCOCC2)cc1.[O-]c1ccccc1N=Cc1ccc(N2CCOCC2)cc1.c1ccc(-c2ccccn2)nc1 [(2)]	70740	54550	1.018	-27.0	7.074e+12	0.385
[Ni+2].[O-]c1ccccc1N=Cc1ccc(N2CCOCC2)cc1.[O-]c1ccccc1N=Cc1ccc(N2CCOCC2)cc1.c1ccc(-c2ccccn2)nc1 [(3)]	48060	52920	1.051	-26.9	4.8055e+12	0.348
Oc1ccccc1N=Cc1ccc(N2CCOCC2)cc1 [(HL), 2-(4-morpholinobenzylideneamino)phenol]	26390	10620	0.926	-23.0	2.639e+12	0.464
